Source: ChEMBL document CHEMBL1201862, “PubChem BioAssay data set” (2004)
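Assay format: 96-well plates, 48-hour exposure. At the GI50, growth is halved.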 Activity calls are given as the source filed them. No stated cut-off is given here; in the data, active = GI50 up to about 1.1 µM and inactive = higher.

Experiments:
Test in all cases: NCI-60 cell line screen, 48 h
K562 = tested on: K562
T47D = tested on: T47D
SK-MEL-28 = tested on: SK-MEL-28
MCF7 = tested on: MCF7
SNB-19 = tested on: SNB-19
UACC-257 = tested on: UACC-257
COLO 205 = tested on: COLO 205
HOP-92 = tested on: HOP-92
MDA-MB-435 = tested on: MDA-MB-435
M14 = tested on: M14
SF-268 = tested on: SF-268
DU-145 = tested on: DU-145
SNB-75 = tested on: SNB-75
U-251 = tested on: U-251
HCT-15 = tested on: HCT-15
IGROV-1 = tested on: IGROV-1
SK-MEL-2 = tested on: SK-MEL-2
SF-295 = tested on: SF-295
MOLT-4 = tested on: MOLT-4
HCC 2998 = tested on: HCC 2998

| SMILES | GI50 (K562) | GI50 (T47D) | GI50 (SK-MEL-28) | GI50 (MCF7) | GI50 (SNB-19) | GI50 (UACC-257) | GI50 (COLO 205) | GI50 (HOP-92) | GI50 (MDA-MB-435) | GI50 (M14) | GI50 (SF-268) | GI50 (DU-145) | GI50 (SNB-75) | GI50 (U-251) | GI50 (HCT-15) | GI50 (IGROV-1) | GI50 (SK-MEL-2) | GI50 (SF-295) | GI50 (MOLT-4) | GI50 (HCC 2998) |
| --- | --- | --- | --- | --- | --- | --- | --- | --- | --- | --- | --- | --- | --- | --- | --- | --- | --- | --- | --- | --- |
| O=C1C[C@H](Sc2ccccc2)C2(OCCO2)[C@H]2ON3CCC[C@@H]3[C@@H]12 | 1.71 µM (inactive) | 2.06 µM (inactive) | 2.49 µM (inactive) | 1.12 µM (inactive) | 5.18 µM (inactive) | 2.72 µM (inactive) | 1.66 µM (inactive) | 1.24 µM (inactive) | 1.67 µM (inactive) | 2.26 µM (inactive) | 1.65 µM (inactive) | 2.61 µM (inactive) | 3.66 µM (inactive) | 1.88 µM (inactive) | 0.59 µM | 0.9 µM (active) | 3.75 µM (inactive) | 3.79 µM (inactive) | 0.333 µM (active) | 2.57 µM (inactive) |
| CC(C)(C)c1cc(C(=O)/C=C/c2ccc(O)c(O)c2O)cc(C(C)(C)C)c1O | 2.81 µM (inactive) | 2 µM (inactive) | 5.01 µM (inactive) | 4.6 µM (inactive) | 2.56 µM (inactive) | 3.05 µM (inactive) | 11.8 µM (inactive) | 5.68 µM (inactive) | 6.89 µM (inactive) | 5.46 µM (inactive) | 5.3 µM (inactive) | 10.5 µM (inactive) | 1.95 µM (inactive) | 2.79 µM (inactive) | 0.991 µM | 6 µM (inactive) | 4.41 µM (inactive) | 5.41 µM (inactive) | 2.49 µM (inactive) | 2.84 µM (inactive) |
| O=C1c2ccccc2C(=O)N1[C@@H](Cc1ccccc1)C(=O)n1cccc1CO | > 100 µM (inactive) | > 100 µM (inactive) | > 100 µM (inactive) | > 100 µM (inactive) | > 100 µM (inactive) | > 100 µM (inactive) | > 100 µM (inactive) | > 100 µM (inactive) | > 100 µM (inactive) | > 100 µM (inactive) | > 100 µM (inactive) | > 100 µM (inactive) | > 100 µM (inactive) | > 100 µM (inactive) | > 100 µM | > 100 µM (inactive) | > 100 µM (inactive) | > 100 µM (inactive) | > 100 µM (inactive) | > 100 µM (inactive) |
| CO/C(N)=C(C#N)/N=C/c1ccccc1 | 58.6 µM (inactive) | > 100 µM (inactive) | > 100 µM (inactive) | 31.8 µM (inactive) | 66.2 µM (inactive) | > 100 µM (inactive) | 71.9 µM (inactive) | > 100 µM (inactive) | > 100 µM (inactive) | 79.6 µM (inactive) | > 100 µM (inactive) | > 100 µM (inactive) | > 100 µM (inactive) | > 100 µM (inactive) | > 100 µM | > 100 µM (inactive) | > 100 µM (inactive) | > 100 µM (inactive) | > 100 µM (inactive) | > 100 µM (inactive) |
| O=C1/C(=N\NC(=S)NC2CCCCC2)c2cc([N+](=O)[O-])ccc2N1CN1CCOCC1 | 3.61 µM (inactive) | 2.64 µM (inactive) | 10.9 µM (inactive) | 4.06 µM (inactive) | 7.87 µM (inactive) | 10.5 µM (inactive) | 5.32 µM (inactive) | 1.96 µM (inactive) | 6.79 µM (inactive) | 9.53 µM (inactive) | 4.35 µM (inactive) | 11 µM (inactive) | 11.5 µM (inactive) | 4.52 µM (inactive) | 2.39 µM | 1.51 µM (inactive) | 11.7 µM (inactive) | 3.67 µM (inactive) | 1.71 µM (inactive) | 4.93 µM (inactive) |
| C#C[C@]1(O)[C@@H](CO)O[C@@H](n2ccc(=O)[nH]c2=O)[C@@H]1O | < 0.0146 µM (active) | 0.0692 µM (active) | 0.791 µM (active) | 0.0339 µM (active) | 1.03 µM (active) | 1.81 µM (inactive) | < 0.01 µM (active) | 0.132 µM (active) | 0.173 µM (active) | 0.237 µM (active) | 0.116 µM (active) | 0.0391 µM (active) | 0.357 µM (active) | 0.121 µM (active) | 0.0186 µM | 0.0745 µM (active) | 0.15 µM (active) | 0.191 µM (active) | < 0.0177 µM (active) | 0.0592 µM (active) |
